Data published in paper PMC8838532 (Molecules, 2022).
Like-named read-outs stand apart in the source and are kept apart here. Blank lines part the entries; values can stand above or below the compound they belong to.

Legend:
K562 cells [1] = assay: Resazurin cytotoxicity assay in K562 cells; conditions: for viability at 10 µM: read-out: percentage of viability
K562 cells [2] = conditions: 150 μM, Figure 1; cited from earlier work
A549 cells [3] = conditions: 150 μM, cited from earlier work; for % viability reduction A549 cells: Figure 1
K562 cells [4] = system: K562 cells; design: method as in PMID 30055465; conditions: cited from earlier work
WSS-1 cells = assay: Resazurin cytotoxicity assay in WSS-1 cells; type: cell-based; conditions: WSS-1 healthy human cells, 48 h
Experimental: (§1) The A549 cell line (CCL-185™; ATCC, Manassas, VA, USA), from human lung carcinoma epithelium, and the K562 cell line (Rio de Janeiro Cell Bank, BCRJ: 0126, Rio de Janeiro, RJ, Brazil), a human chronic myeloid cell line expressing the BCR-ABL1 protein, were grown in RPMI-1640 culture medium (Merck, Darmstadt, Hesse, Germany) supplemented with 10% heat-inactivated fetal bovine serum (FBS; Vitrocell, Campinas, SP, Brazil). WSS-1 [WS-1] (ATCC CRL-2029™) human […] cells were grown in high-glucose DMEM (Vitrocell) supplemented with 10% FBS (Vitrocell). All cell lines were maintained at 37 °C under 5% CO2, in a water jacket CO2 incubator (Forma Series II incubator, Thermo Fisher Scientific, Waltham, MA, USA).
(§2) Briefly, cells were seeded in 96-well microplates (2 × 10^4 cells/well for K562 cells and 5 × 10^4 cells/well for A549 and WSS-1 cells) and incubated with 10 µM of the test compounds for 48 h at 37 °C. A resazurin (Merck, Darmstadt, Hesse, Germany) solution (final concentration: 0.01 mg/mL) was added to each well before the end of the experiment, at 1 h before concluding for K562 cells, and 2 h before concluding for A549 and WSS-1 cells. Fluorescence readings (λex = 560 nm, […]) were carried out immediately after the addition of resazurin (t0) and at the end of the experiment (tn) with a FlexStation 3 Benchtop multimode microplate reader (Molecular Devices, San Jose, CA, USA). Resorufin fluorescence was calculated by subtracting the fluorescence measured at t0 from that at tn. Cell viability was expressed as percentages, considering the mean resorufin fluorescence of the control wells (cells incubated with only DMSO) to be 100%. Tests were performed in triplicate. The same assay was carried out to generate 8–10 points concentration-response curves (300 µM top compound concentration).
(§3) IC50 values were calculated by a four-parameter logistic curve function, using GraphPad Prism version 6.01 for Windows (GraphPad Software, San Diego, CA, USA, www.graphpad.com) (accessed on 29 December 2021).

A549 cells [5] = assay: Resazurin cytotoxicity assay in A549 cells; type: cell-based, human; conditions: for fold more potent than imatinib / IC50: A549 cells; for fold more potent than imatinib: IC50 versus imatinib; for IC50: Homo sapiens, 48 h, resazurin, concentration-response curve; for SI WSS-1/A549: SI = IC50 (WSS-1)/IC50 (A549)
Experimental: as §1, §2, §3

K562 cells [6] = conditions: Figure 1; cited from earlier work

melting point: 251 to 253 °C
Compound: Cc1ccc(-n2cc(CN3C(=O)C(=O)c4cc(F)ccc43)nn2)cc1Nc1nccc(-c2cccnc2)n1 [2e, 5-fluoro-1-((1-(4-methyl-3-((4-(pyridin-3-yl)pyrimidin-2-yl)amino)phenyl)-1H-1,2,3-triazol-4 yl)methyl)indoline-2,3-dione]

Compound: Cc1ccc(NC(=O)c2ccc(CN3CCN(C)CC3)cc2)cc1Nc1nccc(-c2cccnc2)n1 [Imatinib, imatinib]
viability at 10 µM (K562 cells [1]; Homo sapiens, K562, 48 h): 30.7% | % viability reduction K562 cells (K562 cells [2]): 61.7% | % viability reduction A549 cells (A549 cells [3]): 61.2%

Compound: COc1ccc(CN2C(=O)C(=O)c3cc(-c4ccc(OC)cc4)ccc32)cc1 [compound 4]
IC50 (K562 cells [4]): 0.03 µM

melting point: 267 to 270 °C
Compound: Cc1ccc(-n2cc(CN3C(=O)C(=O)c4cc(Br)ccc43)nn2)cc1Nc1nccc(-c2cccnc2)n1 [2d, 5-bromo-1-((1-(4-methyl-3-((4-(pyridin-3-yl)pyrimidin-2-yl)amino)phenyl)-1H-1,2,3-triazol-4 yl)methyl)indoline-2,3-dione]

melting point: 102 to 104 °C
Compound: Cc1ccc2c(c1)C(F)(F)C(=O)N2Cc1cn(-c2ccc(C)c(Nc3nccc(-c4cccnc4)n3)c2)nn1 [compound 3b, 3,3-difluoro-5-methyl-1-((1-(4-methyl-3-((4-(pyridin-3-yl)pyrimidin-2-yl)amino)phenyl)-1H-1,2,3-triazol-4-yl)methyl)indolin-2-one]
IC50 (K562 cells [1]; Homo sapiens, K562, 48 h, read-out: IC50 K562): 35.8 µM | viability at 10 µM (K562 cells [1]; Homo sapiens, K562, 48 h): 57.5% | SI WSS-1/K562 (K562 cells [1]; SI = IC50 (WSS-1)/IC50 (K562)): 1.9 | IC50 (WSS-1 cells): 69.3 µM

melting point: 223 to 224 °C
Compound: Cc1ccc(-n2cc(CN3C(=O)C(F)(F)c4cc(Cl)ccc43)nn2)cc1Nc1nccc(-c2cccnc2)n1 [3c, 5-chloro-3,3-difluoro-1-((1-(4-methyl-3-((4-(pyridin-3-yl)pyrimidin-2-yl)amino)phenyl)-1H-1,2,3-triazol-4-yl)methyl)indoline-2-one]
fold more potent than imatinib (A549 cells [5]): approximately 10 fold | IC50 (A549 cells [5]): 6.4 µM | SI WSS-1/A549 (A549 cells [5]): 2.1 | IC50 (WSS-1 cells): 13.5 µM

melting point: 222 °C
Compound: Cc1ccc(-n2cc(CN3C(=O)C(F)(F)c4ccccc43)nn2)cc1Nc1nccc(-c2cccnc2)n1 [compound 3a, 3.3-difluoro-1-((1-(4-methyl-3-((4-(pyridin-3-yl)pyrimidin-2-yl)amino)phenyl)-1H-1,2,3-triazole-4-yl)methyl)indoline-2-one]
fold more potent than imatinib (A549 cells [5]): approximately 10 fold | IC50 (A549 cells [5]): 7.2 µM | SI WSS-1/A549 (A549 cells [5]): 1.6 | IC50 (WSS-1 cells): 11.6 µM

melting point: 235 to 237 °C
Compound: Cc1ccc2c(c1)C(=O)C(=O)N2Cc1cn(-c2ccc(C)c(Nc3nccc(-c4cccnc4)n3)c2)nn1 [2b, 5-methyl-1-((1-(4-methyl-3-((4-(pyridin-3-yl)pyrimidin-2-yl)amino)phenyl)-1H-1,2,3-triazol-4 yl)methyl)indoline-2,3-dione]

melting point: 218 to 219 °C
Compound: Cc1ccc(-n2cc(CN3C(=O)C(F)(F)c4cc(Br)ccc43)nn2)cc1Nc1nccc(-c2cccnc2)n1 [3d, 5-bromo-3.3-difluoro-1-((1-(4-methyl-3-((4-(pyridin-3-yl)pyrimidin-2-yl)amino)phenyl)-1H-1,2,3-triazol-4-yl)methyl)indoline-2-one]
fold more potent than imatinib (A549 cells [5]): approximately 10 fold | IC50 (A549 cells [5]): 7.3 µM | SI WSS-1/A549 (A549 cells [5]): 2.5 | IC50 (WSS-1 cells): 18.6 µM

melting point: 237 to 239 °C
Compound: Cc1ccc(-n2cc(CN3C(=O)C(=O)c4ccccc43)nn2)cc1Nc1nccc(-c2cccnc2)n1 [compound 2a, 1-((1-(4-methyl-3-((4-(pyridin-3-yl)pyrimidin-2-yl)amino)phenyl)-1H-1,2,3-triazol-4-yl)methyl)indoline-2,3-dione]

Compound: CC(=O)NCC(=O)Nc1ccc(C)c(Nc2nccc(-c3cccnc3)n2)c1 [compound 8]
% viability reduction K562 cells (K562 cells [2]): 66.3% | % viability reduction A549 cells (A549 cells [3]): 61.5% | cell viability (A549 cells [3]): 38.5%

melting point: 257 to 260 °C
Compound: Cc1ccc(-n2cc(CN3C(=O)C(=O)c4cc(Cl)ccc43)nn2)cc1Nc1nccc(-c2cccnc2)n1 [2c, 5-chloro-1-((1-(4-methyl-3-((4-(pyridin-3-yl)pyrimidin-2-yl)amino)phenyl)-1H-1,2,3-triazol-4 yl)methyl)indoline-2,3-dione]

Compound: Cc1ccc(-c2cn(-c3ccc(CN4CCN(C)CC4)c(C(F)(F)F)c3)nn2)cc1Nc1nccc(-c2cccnc2)n1 [compound 7]
IC50 (K562 cells [6]): 0.03 µM

Compound: CCc1c2c(nc3ccc(OC(=O)N4CCC(N5CCCCC5)CC4)cc13)-c1cc3c(c(=O)n1C2)COC(=O)[C@]3(O)CC [irinotecan]
IC50 (K562 cells [4]): 0.07 µM
